Experimental findings from PMC4735018, “De Novo Evolutionary Emergence of a Symmetrical Protein Is Shaped by Folding Constraints” (Cell, 2016) are described below.

Molecules are shown by their SMILES.

One assay relates to T1, AncB1B.
T1 construct: single ancestral motif of about 47 residues, blade frame, first-library variant with F23L from error-prone PCR; homo-pentamer; E. coli (pET29), GlcNAc-resin purified
Description: isothermal titration calorimetry. The assay is classed as binding, synthetic construct. As to conditions: 25 °C, 20 mM Tris, 150 mM NaCl, pH 7.6; 10 µM propeller; single site model, five near-identical non-cooperative sites. (In general: ITC needs no label: the signal is the heat of the interaction.)

The subject of another assay is T2, AncA1B.
T2 construct: single ancestral motif of about 47 residues, blade frame, from second ancestral library; homo-pentamer; E. coli (pET29), GlcNAc-resin purified
Description: isothermal titration calorimetry. The assay is classed as binding, synthetic construct. The following applies: 25 °C, 20 mM Tris, 150 mM NaCl, pH 7.6; 10 µM propeller; single site model, five near-identical non-cooperative sites.

Take `CC(=O)N[C@H]1C(O)O[C@H](CO)[C@@H](O)[C@@H]1O` (some centres unmarked) [GlcNAc]: the binding affinity entry was “The earliest evolutionary stage of single motifs was sampled using AncA1B and AncB1B” in the assay with AncB1B; “five different parameters were measured for representative variants along the evolutionary trajectory” in the assay with AncA1B.
